How the values were obtained:
in vitro [1] = conditions: human, liver microsomes
Description: Metabolic stability in human liver microsomes assessed as intrinsic clearance at 0.5 uM incubated for 30 mins by LC-MS/MS analysis

cells = conditions: Homo sapiens, MRC-5 SV2, 72 h
Description: (§1) Cytotoxicity against human MRC5 SV2 cells assessed as reduction in cell viability incubated for 3 days by fluorimetry

Trypanosoma cruzi = assay: microbe, parasite or virus in culture; conditions: Tulahuen CL2, MRC-5 SV2, 168 h
Description: Antitrypanosomal activity against Trypanosoma cruzi Tulahuen CL2 amastigotes infected in human MRC5 SV2 cells incubated for 7 days by chlorophenol red beta-D-galactopyranoside substrate based spectrophotometric assay

physchem = conditions: buffer, pH 7.4
Description: Lipophilicity, logD of compound at pH 7.4 by HPLC analysis

in vitro [2] = conditions: mouse, liver microsomes
Description: Metabolic stability in mouse liver microsomes assessed as intrinsic clearance at 0.5 uM incubated for 30 mins by LC-MS/MS analysis

in vitro [3] = conditions: PAMPA
Description: Effective permeability of compound by PAMPA assay

in vitro [4] = conditions: human, MRC5 SV2 cells
Description: as §1

Macrophage = assay: cells; conditions: Mus musculus, 72 h
Description: (§2) Cytotoxicity against mouse peritoneal Macrophage cells assessed as reduction in cell viability incubated for 3 days by fluorimetry

Leishmania infantum = assay: microbe, parasite or virus in culture; conditions: for IC50: MHOM/MA(BE)/67/ITMAP263, 120 h; for IC90: MHOM/MA(BE)/67/ITMAP263, in Mus musculus, 120 h
Description: Antileishmanial activity against amastigote stage of Leishmania infantum MHOM/MA(BE)/67/ITMAP263 infected in mouse peritoneal macrophage assessed as parasite growth inhibition incubated for 5 days by Giemsa staining based assay

in vitro [5] = conditions: mouse, peritoneal macrophages
Description: as §2

[6] = test system: Trypanosoma brucei rhodesiense; assay: microbe, parasite or virus in culture; conditions: STIB900, 72 h
Description: Antiprotozoal activity against Trypanosoma brucei rhodesiense STIB900 trypomastigotes incubated for 72 hrs by resazurin dye based fluorimetric analysis

Trypanosoma brucei = assay: microbe, parasite or virus in culture; conditions: Squib 427, 72 h
Description: Antitrypanosomal activity against Trypanosoma brucei Squib 427 assessed as reduction in parasite growth incubated for 72 hrs by resazurin dye based fluorimetric analysis

in vitro [7] = conditions: human, MRC5 SV2 cells; remark: listed apart in the source
Description: Selectivity index, ratio of IC50 for human MRC5 SV2 cells to IC50 for Trypanosoma cruzi Tulahuen CL2 amastigotes infected in human MRC5 SV2 cells

SMILES | CLint scaled at 0.5 h, 0.5 µM (in vitro [1]) [mL/min/kg] | microsomal CLint at 0.5 h, 0.5 µM (in vitro [1]) [µL/min/mg] | logD (physchem) | CLint scaled at 0.5 h, 0.5 µM (in vitro [2]) [mL/min/kg] | microsomal CLint at 0.5 h, 0.5 µM (in vitro [2]) [µL/min/mg] | Papp (in vitro [3]) [×10⁻⁶ cm/s] | IC90 at 72 h (in vitro [4]) [µM] | IC50 (Leishmania infantum) [µM] | IC90 (Leishmania infantum) [µM] | IC90 at 72 h (in vitro [5]) [µM] | IC50 [6] [µM] | IC90 [6] [µM] | IC50 (Trypanosoma brucei) [µM] | IC90 (Trypanosoma brucei) [µM] | IC50 (cells) [µM] | IC50 (Trypanosoma cruzi) [µM] | IC90 (Trypanosoma cruzi) [µM] | IC50 (Macrophage) [µM] | selectivity ratio (in vitro [7])
O=C(c1ccccn1)N1CCCC(c2cc3ncccc3[nH]2)C1 (stereo not drawn) | < 25 | < 23 | 1.85 | 523 | 164 | 2.33 | 64 | 64 | 64 | 64 | 64 | 64 | 64 | 64 | 64 | 64 | 64 | 64 | 
O=C(c1ccc(F)cc1)N1CCC(c2cc3ncccc3[nH]2)C1 (stereo not drawn) | 68.7 | 44.6 | 2.62 | 5590 | 1230 | 1.58 | 64 | 64 | 64 | 64 | 43.9 | 64 | 64 | 64 | 64 | 8.99 | 64 | 64 | 7.15
O=C(c1ccccc1)N1CC=C(c2cc3ccccc3[nH]2)CC1 | 201 | 61.9 | 4.15 | 13200 | 1370 | 4.86 | 64 | 64 | 64 | 64 | 64 | 64 | 64 | 64 | 64 | 41.9 | 64 | 64 | 
N#Cc1ccc(C(=O)N2CCCC(c3cc4ncccc4[nH]3)C2)cc1 (stereo not drawn) | 51.5 | < 23 | 2.37 |  |  | 0.379 | 64 | 64 | 64 | 64 | 64 | 64 | 64 | 64 | 64 | 25.6 | 59 | 64 | 2.49
CN(CC(O)c1cc2ncccc2n1S(=O)(=O)c1ccccc1)C(=O)c1ccccc1 (stereo not drawn) | 223 | 160 | 3.31 | 2050 | 498 | 15.7 | 64 | 11.4 | 15.1 | 14.9 | 59.4 | 64 | 64 | 64 | 64 | 64 | 64 | 11.3 | 
N#Cc1cnc2cc(C3CCCN(C(=O)c4cc(C(F)(F)F)no4)C3)[nH]c2c1 (stereo not drawn) | 50.5 to 54.2 | 32.9 | 3.5 | 310 to 555 | 68.3 to 114 | 5.51 | 64 | 39.2 | 59 | 59.7 | 64 | 64 | 64 | 64 | 64 | 64 | 64 | 45.3 | 
COc1cccc(C(=O)N2CCCC(c3cc4ncccc4[nH]3)C2)c1OC (stereo not drawn) | 110 |  |  | 2600 |  |  | 32 | 32 | 32 | 32 | 31 | 32 | 32 | 32 | 32 | 4.03 | 7.52 | 32 | 8
O=C(c1cc(C2CC2)on1)N1CCCC(c2cc3ncccc3[nH]2)C1 (stereo not drawn) | 32.7 |  |  | 1830 |  |  | 32 | 32 | 32 | 32 | 25.2 | 32 | 32 | 32 | 32 | 3.92 | 7.5 | 32 | 8.15
COc1ccc(C(=O)N2CCCC(c3cc4ncccc4[nH]3)C2)cc1OC (stereo not drawn) | < 32.2 | < 23 | 2.61 | 564 | 137 | 1.58 | 64 | 64 | 64 | 64 | 64 | 64 | 64 | 64 | 64 | 8.96 | 64 | 64 | 7.15
COc1ccc2cc(C(=O)N3CCCC(c4cc5ncccc5[nH]4)C3)[nH]c2c1 (stereo not drawn) | 1620 |  |  | 1000 |  |  | 32 | 32 | 32 | 32 | 32 | 32 | 32 | 32 | 32 | 4.03 | 7.62 | 32 | 7.95
O=C(OCc1ccccc1)N1CCCC(c2cn3cccnc3n2)C1 (stereo not drawn) |  |  |  |  |  |  | 64 | 64 | 64 | 64 | 55.4 | 64 | 64 | 64 | 64 | 34.5 | 64 | 64 | 1.88
O=C(c1ccccc1)N1CCC(O)(c2cc3ncccc3[nH]2)CC1 | 52 | 31 | 2.13 | 956 | 193 |  | 64 | 64 | 64 | 64 | 64 | 64 | 64 | 64 | 64 | 64 | 64 | 64 | 

More lines, main results first:

CLint scaled at 0.5 h, 0.5 µM (in vitro [1]) [mL/min/kg] | microsomal CLint at 0.5 h, 0.5 µM (in vitro [1]) [µL/min/mg] | logD (physchem) | CLint scaled at 0.5 h, 0.5 µM (in vitro [2]) [mL/min/kg] | microsomal CLint at 0.5 h, 0.5 µM (in vitro [2]) [µL/min/mg] | Papp (in vitro [3]) [×10⁻⁶ cm/s] | IC90 at 72 h (in vitro [4]) [µM] | IC50 (Leishmania infantum) [µM] | IC90 (Leishmania infantum) [µM] | IC90 at 72 h (in vitro [5]) [µM] | IC50 [6] [µM] | IC90 [6] [µM] | IC50 (Trypanosoma brucei) [µM] | IC90 (Trypanosoma brucei) [µM] | SMILES | IC50 (cells) [µM] | IC50 (Trypanosoma cruzi) [µM] | IC90 (Trypanosoma cruzi) [µM] | IC50 (Macrophage) [µM] | selectivity ratio (in vitro [7])
< 31.7 | < 23 | 2.49 | < 95 | < 23 | 8.77 | 64 | 64 | 64 | 64 | 64 | 64 | 64 | 64 | O=C(NCCc1nc2ncc(Cl)cc2[nH]1)c1ccccc1 | 64 | 64 | 64 | 64 | 
 |  | 1.63 |  |  | 3.35 to 3.44 | 64 | 64 | 64 | 64 | 64 | 64 | 64 | 64 | CCN(CCc1nc2ncccc2[nH]1)C(=O)c1ccccc1 | 64 | 64 | 64 | 64 | 
≥ 38 | 35.2 | 3.06 | ≥ 623 | 195 | 0.907 | 64 | 39.1 | 58.5 | 64 | 39.4 | 64 | 64 | 64 | O=C(c1ccc(F)cc1)N1CC=C(c2cc3ncccc3[nH]2)CC1 | 64 | 2.54 | 64 | 64 | 25.1
≥ 25 | < 23 | 3.24 | > 963 | 301 | 6.13 | 64 | 64 | 64 | 64 | 64 | 64 | 64 | 64 | O=C(CCc1nc2ncc(Cl)cc2[nH]1)Nc1cccc(F)c1 | 64 | 64 | 64 | 64 | 
< 33.3 | < 23 | 2.81 | 516 | 120 | 5.97 | 64 | 64 | 64 | 64 | 64 | 64 | 64 | 64 | O=C(CCc1nc2ncc(Cl)cc2[nH]1)Nc1ccccc1 | 64 | 64 | 64 | 64 | 
 |  | 1.75 |  |  | 2.72 | 64 | 64 | 64 | 64 | 64 | 64 | 64 | 64 | O=C(CCc1nc2ncccc2[nH]1)Nc1ccccc1 | 64 | 64 | 64 | 64 | 

— ChEMBL document CHEMBL4342426, “Structure-activity relationship of 4-azaindole-2-piperidine derivatives as agents against Trypanosoma cruzi” (Bioorg Med Chem Lett, 2020)
